We go through 26 molecules from patent US9815796B2 (Merck Sharp & Dohme Corp., priority 2013, dated 2017).

Assay [1] addresses Rhesus PDE2A3 (Macaca mulatta, UniProt B3VTJ2). Put plainly: PDE2 fluorescence polarization (IMAP FP) inhibition assay, rhesus enzyme. The assay is classed as biochemical, rhesus macaque. Put shortly:
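Rhesus PDE2A3 came from lysate of transiently transfected AD293 cells, diluted to give 20% substrate conversion. Substrate was 50 nM FAM-cAMP with 1 uM cGMP activator in Tris pH 7.2/MgCl2 buffer, run 60 min at room temperature over 10-point 3-fold dilutions in 1% DMSO. Read-out was IMAP fluorescence polarization (mP) after ≥1 h binding.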

Assay [2] concerns the target human PDE2A1 (Homo sapiens (Human), UniProt O00408). Put plainly: IMAP FP PDE selectivity panel, human PDE2A1. The assay is classed as biochemical. In outline: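 GST-tagged human PDE2A1 expressed in insect cells, run at room temperature for 60 min with 50 nM FAM-cAMP containing 1000 nM cGMP, pH 7.2 Tris/MgCl2 buffer. IMAP fluorescence polarization read after binding step.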

Where [3] appears, read: Rhesus PDE2, Lab A, read-out: Rhesus PDE2 Ki (nM) - Lab A.
The mark [4] stands for this setting: Human PDE2, Lab A, read-out: Human PDE2 Ki (nM) - Lab A.
[5] abbreviates: Rhesus PDE2, Lab B, read-out: Rhesus PDE2 Ki (nM) - Lab B.
[6] abbreviates: Human PDE2, Lab B, read-out: Human PDE2 Ki (nM) - Lab B.

Read-outs that look alike come from different tables or passages of the source.

Sequence of Rhesus PDE2A3 (B3VTJ2 1-941): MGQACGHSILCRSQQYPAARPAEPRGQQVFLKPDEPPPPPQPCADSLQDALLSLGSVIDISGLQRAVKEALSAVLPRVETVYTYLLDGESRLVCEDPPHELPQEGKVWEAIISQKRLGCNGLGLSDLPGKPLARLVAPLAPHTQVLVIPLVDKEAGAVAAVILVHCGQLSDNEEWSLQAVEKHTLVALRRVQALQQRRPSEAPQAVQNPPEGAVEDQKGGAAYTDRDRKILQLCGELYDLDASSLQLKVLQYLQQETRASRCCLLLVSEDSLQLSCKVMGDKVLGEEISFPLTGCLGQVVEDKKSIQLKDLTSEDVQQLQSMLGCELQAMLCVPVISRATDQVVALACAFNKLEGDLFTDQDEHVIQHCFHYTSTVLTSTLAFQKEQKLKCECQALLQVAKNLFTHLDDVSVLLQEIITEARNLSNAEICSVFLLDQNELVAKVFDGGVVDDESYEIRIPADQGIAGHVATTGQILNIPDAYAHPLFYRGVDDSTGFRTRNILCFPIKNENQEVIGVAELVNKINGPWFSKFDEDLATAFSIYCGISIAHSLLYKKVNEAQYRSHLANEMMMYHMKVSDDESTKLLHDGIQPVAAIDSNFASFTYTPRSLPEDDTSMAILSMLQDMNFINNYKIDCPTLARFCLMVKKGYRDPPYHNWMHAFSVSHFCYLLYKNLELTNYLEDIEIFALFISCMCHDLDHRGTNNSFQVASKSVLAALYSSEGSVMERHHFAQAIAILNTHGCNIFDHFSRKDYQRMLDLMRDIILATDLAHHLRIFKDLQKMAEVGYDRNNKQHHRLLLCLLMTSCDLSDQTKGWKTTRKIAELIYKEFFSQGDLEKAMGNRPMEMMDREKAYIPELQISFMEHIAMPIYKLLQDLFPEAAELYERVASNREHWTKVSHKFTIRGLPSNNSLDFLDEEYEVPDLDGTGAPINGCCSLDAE
Sequence of human PDE2A1 (O00408 other isoform, or with tags, fused parts or gaps): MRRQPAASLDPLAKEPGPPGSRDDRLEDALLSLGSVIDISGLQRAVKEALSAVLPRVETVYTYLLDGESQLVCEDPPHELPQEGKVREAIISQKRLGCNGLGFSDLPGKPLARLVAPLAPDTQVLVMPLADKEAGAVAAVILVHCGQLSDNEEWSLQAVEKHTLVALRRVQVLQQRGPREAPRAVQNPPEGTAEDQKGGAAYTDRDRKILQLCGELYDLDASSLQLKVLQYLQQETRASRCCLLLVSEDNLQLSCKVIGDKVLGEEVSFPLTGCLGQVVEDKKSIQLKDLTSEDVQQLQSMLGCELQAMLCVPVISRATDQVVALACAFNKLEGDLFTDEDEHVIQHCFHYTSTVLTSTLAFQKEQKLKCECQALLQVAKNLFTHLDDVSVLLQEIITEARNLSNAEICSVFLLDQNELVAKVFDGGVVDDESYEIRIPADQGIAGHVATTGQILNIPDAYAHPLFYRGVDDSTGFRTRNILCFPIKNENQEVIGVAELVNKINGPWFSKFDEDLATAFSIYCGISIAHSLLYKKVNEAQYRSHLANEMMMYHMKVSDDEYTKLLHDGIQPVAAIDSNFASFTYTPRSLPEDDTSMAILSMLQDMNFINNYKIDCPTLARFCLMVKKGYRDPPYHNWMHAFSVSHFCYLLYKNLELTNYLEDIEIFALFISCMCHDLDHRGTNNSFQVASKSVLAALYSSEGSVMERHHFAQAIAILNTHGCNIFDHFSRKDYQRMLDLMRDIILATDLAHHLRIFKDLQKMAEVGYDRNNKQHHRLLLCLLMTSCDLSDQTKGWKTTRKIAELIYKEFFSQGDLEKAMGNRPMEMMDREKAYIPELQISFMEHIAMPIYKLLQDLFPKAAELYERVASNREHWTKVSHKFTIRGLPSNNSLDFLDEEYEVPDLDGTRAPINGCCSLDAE

Take `CC(C)(NC(=O)c1cc(=O)[nH]c(-c2ncccn2)n1)c1ccc(C(F)(F)F)c(F)c1` [Example 82, N-{1-[3-fluoro-4-(trifluoromethyl)phenyl]-1-methylethyl}-6-oxo-1,6-dihydro-2,2′-bipyrimidine-4-carboxamide]: the Ki is 153 nM in assay [1] (setting [3]) and 82 nM in assay [2] (setting [4]).

Regarding `Cc1nc(C(=O)NC(c2ccc(C3(C)CC3)c(F)c2)C(C)(C)C)cc(=O)[nH]1` (single isomer, unassigned) [Example 711, (R)- or (S)-N-(1-(3-fluoro-4-(1-methylcyclopropyl)phenyl)-2,2-dimethylpropyl)-2-methyl-6-oxo-1,6-dihydropyrimidine-4-carboxamide], the inhibition constant Ki is 5.1 nM in assay [1] (setting [5]) and 3.7 nM in assay [2] (setting [6]).

Take `C[C@@H](NC(=O)c1cc(=O)[nH]c(C2CC2)n1)c1ccc2ccccc2c1` [Example 224, 2-cyclopropyl-N-[(1R)-1-naphthalen-2-ylethyl]-6-oxo-1,6-dihydropyrimidine-4-carboxamide]: the values for the Ki in assay [1] (setting [3]) and in assay [2] (setting [4]) were 40 nM and 20 nM, respectively.

With `C[C@@H](NC(=O)c1cc(=O)[nH]c(-c2ccccc2)n1)c1ccc(CC(F)(F)F)cc1` [Example 183, 6-oxo-2-phenyl-N-{(1R)-1-[4-(2,2,2-trifluoromethyl)phenyl]ethyl}-1,6-dihydropyrimidine-4-carboxamide], the figures for the Ki in assay [1] (setting [3]) and in assay [2] (setting [4]) were 6.4 nM and 4.1 nM, respectively.

Regarding `C[C@@H](NC(=O)c1cc(=O)[nH]c(-c2ncccn2)n1)c1ccc(OC(F)(F)F)cc1` [Example 283, 6-oxo-N-{(1R)-1-[4-(trifluoromethoxy)phenyl]ethyl}-1,6-dihydro-2,2′-bipyrimidine-4-carboxamide], the Ki in assay [1] (setting [3]) is 8.7 nM; in assay [2] (setting [4]) it was 6 nM.

Consider `C[C@@H](NC(=O)c1cc(=O)[nH]c(-c2ccccc2)n1)c1ccc(C2CC2)cc1` [Example 423, N-[(1R)-1-(4-cyclopropylphenyl)ethyl]-6-oxo-2-phenyl-1,6-dihydropyrimidine-4-carboxamide], for which the values for the Ki in assay [1] (setting [3]) and in assay [2] (setting [6]) were 3 nM and 5.6 nM, respectively.

As to `COc1ccc(Cc2nc(C(=O)N[C@@H](c3ccc(SC(F)(F)F)c(F)c3)C3CC3)cc(=O)[nH]2)cc1F` [Example 520, N-[(R)-cyclopropyl{3-fluoro-4-[(trifluoromethyl)sulfanyl]phenyl}methyl]-2-(3-fluoro-4-methoxybenzyl)-6-oxo-1,6-dihydropyrimidine-4-carboxamide], the Ki in assay [1] (setting [5]) is 3.8 nM; in assay [2] (setting [6]), 3.6 nM.

For `COCc1nc(C(=O)N[C@@H](c2ccc(C(F)(F)F)cc2)C2CC2)cc(=O)[nH]1` [Example 118, N-{(R)-cyclopropyl[4-(trifluoromethyl)phenyl]methyl}-2-(methoxymethyl)-6-oxo-1,6-dihydropyrimidine-4-carboxamide], the figures for the Ki in assay [1] (setting [3]) and in assay [2] (setting [4]) were 76 nM and 18 nM, respectively.

Consider `COCc1nc(C(=O)N[C@@H](c2ccc(OC(F)(F)F)cc2)C2CC2)cc(=O)[nH]1` [Example 116, N-{(R)-cyclopropyl[4-(trifluoromethoxy)phenyl]methyl}-2-(methoxymethyl)-6-oxo-1,6-dihydropyrimidine-4-carboxamide], for which the figures for the Ki in assay [1] (setting [3]) and in assay [2] (setting [4]) were 70 nM and 16 nM, respectively.

Take `Cc1nc(C(=O)N[C@@H](c2ccc(OC(F)(F)F)c(F)c2)C2CC2)cc(=O)[nH]1` [Example 40, N-{(R)-cyclopropyl[3-fluoro-4-(trifluoromethoxy)phenyl]methyl}-2-methyl-6-oxo-1,6-dihydropyrimidine-4-carboxamide]: the figures for the Ki in assay [1] (setting [3]) and in assay [2] (setting [4]) were 19 nM and 9.3 nM, respectively.

For the molecule `Cc1nc(C(=O)NC(C)c2ccc(C(F)(F)F)cn2)cc(=O)[nH]1` (stereo not shown) [Example 17, 2-methyl-6-oxo-N-{1-[5-(trifluoromethyl)pyridin-2-yl]ethyl}-1,6-dihydropyrimidine-4-carboxamide], the values for the Ki in assay [1] (setting [3]) and in assay [2] (setting [4]) were 1160 nM and 917 nM, respectively.

For `CC[C@@H](NC(=O)c1cc(=O)[nH]c(-c2ncccn2)n1)c1ccc(OC(F)(F)F)cc1` [Example 106, 6-oxo-N-{(1R)-1-[4-(trifluoromethoxy)phenyl]propyl}-1,6-dihydro-2,2′-bipyrimidine-4-carboxamide], the Ki amounted to 12 nM in assay [1] (setting [3]) and 5.6 nM in assay [2] (setting [4]).

Consider `CC[C@@H](NC(=O)c1cc(=O)[nH]c(C(C)(C)c2ccc(OC)cc2)n1)c1ccc(SC(F)(F)F)cc1` [Example 495, 2-[1-(4-methoxyphenyl)-1-methylethyl]-6-oxo-N-[(1R)-1-{4-[(trifluoromethyl)sulfanyl]phenyl}propyl]-1,6-dihydropyrimidine-4-carboxamide], for which the Ki amounted to 54 nM in assay [1] (setting [5]) and 45 nM in assay [2] (setting [6]).

On to `O=C(NC1(c2ccc(SC(F)(F)F)cc2)CC1)c1cc(=O)[nH]c(-c2ccccc2)n1` [Example 159, 6-oxo-2-phenyl-N-(1-{4-[(trifluoromethyl)sulfanyl]phenyl}cyclopropyl)-1,6-dihydropyrimidine-4-carboxamide], for which the Ki was 7.6 nM in assay [1] (setting [3]) and 4.9 nM in assay [2] (setting [4]).

Regarding `C[C@@H](NC(=O)c1cc(=O)[nH]c(-c2ccccc2)n1)c1ccc(SC(F)(F)F)c(F)c1` [Example 398, N-[(1R)-1-{3-fluoro-4-[(trifluoromethyl)sulfanyl]phenyl}eth-yl]-6-oxo-2-phenyl-1,6-dihydropyrimidine-4-carboxamide], the Ki in assay [1] (setting [5]) amounted to 2.9 nM; in assay [2] (setting [6]) it was 2.3 nM.

For `CC[C@@H](NC(=O)c1cc(=O)[nH]c(COC)n1)c1ccc(OC(F)(F)F)c(F)c1` [Example 114, N-{(1R)-1-[3-fluoro-4-(trifluoromethoxy)phenyl]propyl}-2-(methoxymethyl)-6-oxo-1,6-dihydropyrimidine-4-carboxamide], the values for the Ki in assay [1] (setting [3]) and in assay [2] (setting [4]) were 48 nM and ~11 nM, respectively.

Regarding `COCc1nc(C(=O)N[C@H](C)c2ccc(SC(F)(F)F)cc2)cc(=O)[nH]1` [Example 123, 2-(methoxymethyl)-6-oxo-N-[(1R)-1-{4-[(trifluoromethyl)sulfanyl]phenyl}ethyl]-1,6-dihydropyrimidine-4-carboxamide], the Ki in assay [1] (setting [3]) is 39 nM; in assay [1] (setting [5]), 31 nM; in assay [2] (setting [4]), ~8.2 nM.

As for `Cc1nc(C(=O)NC2(c3ccc(C(F)(F)F)c(F)c3)CC2)cc(=O)[nH]1` [Example 44, N-{1-[3-fluoro-4-(trifluoromethyl)phenyl]cyclopropyl}-2-methyl-6-oxo-1,6-dihydropyrimidine-4-carboxamide], the Ki came to 17 nM in assay [1] (setting [3]), 16 nM in assay [1] (setting [5]), 10 nM in assay [2] (setting [4]) and 16 nM in assay [2] (setting [6]).

For the molecule `Cc1nc(C(=O)NC(C)c2ccc(C(C)(C)C(F)(F)F)cc2)cc(=O)[nH]1` (single isomer, unassigned) [Example 694, (S)- or (R)-2-methyl-6-oxo-N-(1-(4-(1,1,1-trifluoro-2-methylpropan-2-yl)phenyl)ethyl)-1,6-dihydropyrimidine-4-carboxamide], the figures for the Ki in assay [1] (setting [5]) and in assay [2] (setting [6]) were > 2970 nM and > 1240 nM, respectively.

Regarding `CC(C)(C)[C@@H](NC(=O)c1cc(=O)[nH]c(-c2ccccc2)n1)c1ccc(C(F)(F)F)cc1` [Example 337, N-{(1R)-2,2-dimethyl-1-[4-(trifluoromethyl)phenyl]propyl}-6-oxo-2-phenyl-1,6-dihydropyrimidine-4-carboxamide], the Ki was determined as 0.4 nM in assay [1] (setting [3]), 1.2 nM in assay [1] (setting [5]) and 1.1 nM in assay [2] (setting [6]).

Turning to `CC1(C(NC(=O)c2cc(=O)[nH]c(C3CC3)n2)c2ccc(SC(F)(F)F)c(F)c2)CC1` (single isomer, unassigned) [Example 704, (R)- or (S)-2-cyclopropyl-N-((3 fluoro-4-((trifluorormethyl)thio)phenyl)(1-methylcyclopropyl)methyl)-6-oxo-1,6-dihydropyrimidine-4-carboxamide], the Ki stood at 4.7 nM in assay [1] (setting [5]) and 3.6 nM in assay [2] (setting [6]).

Consider `CC(NC(=O)c1cc(=O)[nH]c(C2CC2)n1)c1ccc(C(F)(F)F)cc1Cl` (stereo not shown) [Example 233, N-{1-[2-chloro-4-(trifluoromethyl)phenyl]ethyl}-2-cydopropyl-6-oxo-1,6-dihydropyrimidine-4-carboxamide], for which the inhibition constant (Ki) in assay [1] (setting [3]) is 124 nM; in assay [2] (setting [4]), 78 nM.

For `O=C(NC1(c2ccc(OC(F)(F)F)cc2)CC1)c1cc(=O)[nH]c(-c2ccccc2)n1` [Example 277, 6-oxo-2-phenyl-N-{1-[4-(trifluoromethoxy)phenyl]cyclopropyl}-1,6-dihydropyrimidine-4-carboxamide], the Ki in assay [1] (setting [3]) worked out at 6.6 nM; in assay [2] (setting [4]) it was 5.6 nM.

As to `O=C(NC1(c2ccc(SC(F)(F)F)c(F)c2)CC1)c1cc(=O)[nH]c(C2CC2)n1` [Example 252, 2-cyclopropyl-N-(1-{3-fluoro-4-[(trifluoromethyl)sulfanyl]phenyl}cyclopropyl)-6-oxo-1,6-dihydropyrimidine-4-carboxamide], the Ki in assay [1] (setting [3]) is 8.7 nM; in assay [1] (setting [5]), 14 nM; in assay [2] (setting [4]), ~13 nM; in assay [2] (setting [6]), 20 nM.

As to `CC[C@@H](NC(=O)c1cc(=O)[nH]c(Cc2ccc(OC)cc2)n1)c1ccc(OC(F)(F)F)cc1` [Example 485, 2-(4-methoxybenzyl)-6-oxo-N-{(1R)-1-[4-(trifluoromethoxy)phenyl]propyl}-1,6-dihydropyrimidine-4-carboxamide], the Ki turned out to be 1.9 nM in assay [1] (setting [5]) and 1.5 nM in assay [2] (setting [6]).

For `CC(C)[C@@H](NC(=O)c1cc(=O)[nH]c(-c2ccccc2)n1)c1ccc(OC(F)(F)F)cc1` [Example 166, N-{(1R)-2-methyl-1-[4-(trifluoromethoxy)phenyl]propyl}-6-oxo-2-phenyl-1,6-dihydropyrimidine-4-carboxamide], the Ki in assay [1] (setting [3]) is 3.3 nM; in assay [2] (setting [4]), 2.1 nM.
